Data set [1] can be described thus: Isoelectric point / maximum stability pH. Type of data set: physicochemical. The protocol: The pH of the partially concentrated extract of Example 1, which was an aqueous extract, was adjusted to pH 4.0 (+/−0.5) by adding 2 M phosphoric acid and centrifuged for 15 minutes at 3000 g to remove any solid precipitate. The pH of 4 corresponds to the isoelectric point of psilocybin, and psilocin's polarity is such that it is partitioned onto the resin, thus allowing effective binding of the psychoactive alkaloids psilocybin and psilocin to the macroporous resin. Norbaeocystin and baeocystin are phosphorylated and behave in the same way as psilocybin. The supernatant obtained was loaded onto a column of Amberlite® XAD4, a non-ionic macroporous resin (50.34 g of dry resin) at a flow rate of 2 bed volumes per hour, to allow components in the supernatant to be adsorbed onto the macroporous resin. After all 2.5 L of the extract was loaded onto the column of macroporous resin, the column was washed in a single pass with 5 bed volumes of reverse osmosis water at room temperature. This was followed by elution with 5 bed volumes of 5% ethanol (by weight), again at room temperature. Finally, the column was washed in a single pass with 5 bed volumes of 100% ethanol. The elution was performed at room temperature. Each of these three fractions was collected separately. The particular order for the washing steps and the elution was selected to be in the order of the polarity of the solvents. […]

The conditions of data set [2]: cited from earlier work.
A short description of data set [3]: Oxidation (decay) of psilocin when exposed to air, own data.

Like-named read-outs stand apart in the source and are kept apart here.

For the compound `CN(C)CCc1c[nH]c2cccc(O)c12` [Psilocin, psilocin], in data set [1], the “maximum stability pH” value amounted to 4. Moreover, the solubility result in data set [2] (in acetone) is “not soluble”; in data set [2] (in ethanol), “not soluble”; in data set [2] (in isopropanol), “not soluble”; in data set [2] (in methanol), “soluble”; in data set [2] (in water), “soluble”. The “decay (oxidation of psilocin)” value in data set [3] (at 20 hours when shielded from light) is 40-60%; in data set [3] (moist and/or high light environment, after 5 hours), 25%; in data set [3] (moist and/or high light environment, within 30 minutes), “about 10%”.
As to `CN(C)CCc1c[nH]c2cccc(OP(=O)(O)O)c12` [Psilocybin, psilocybin], the solubility entry in data set [2] (in acetone) was “not soluble”; in data set [2] (in ethanol), “not soluble”; in data set [2] (in isopropanol) it was “not soluble”; in data set [2] (in methanol), “soluble”; in data set [2] (in water), “soluble”.

The values above are taken from US11298388B2, “Psychoactive alkaloid extraction and composition with controlled dephosphorylation” (PSILO SCIENTIFIC LTD, priority 2020, dated 2022).
